{"source": "ChEMBL document CHEMBL5465560", "about": "“Selectivity Literature for EUbOPEN Chemogenomic Library” (2024)", "key": {"[1]": {"tested_on": "Epidermal growth factor receptor (Homo sapiens), P00533 [UNDEFINED MUTATION]", "sequence (P00533 whole entry, looked up, change not shown)": "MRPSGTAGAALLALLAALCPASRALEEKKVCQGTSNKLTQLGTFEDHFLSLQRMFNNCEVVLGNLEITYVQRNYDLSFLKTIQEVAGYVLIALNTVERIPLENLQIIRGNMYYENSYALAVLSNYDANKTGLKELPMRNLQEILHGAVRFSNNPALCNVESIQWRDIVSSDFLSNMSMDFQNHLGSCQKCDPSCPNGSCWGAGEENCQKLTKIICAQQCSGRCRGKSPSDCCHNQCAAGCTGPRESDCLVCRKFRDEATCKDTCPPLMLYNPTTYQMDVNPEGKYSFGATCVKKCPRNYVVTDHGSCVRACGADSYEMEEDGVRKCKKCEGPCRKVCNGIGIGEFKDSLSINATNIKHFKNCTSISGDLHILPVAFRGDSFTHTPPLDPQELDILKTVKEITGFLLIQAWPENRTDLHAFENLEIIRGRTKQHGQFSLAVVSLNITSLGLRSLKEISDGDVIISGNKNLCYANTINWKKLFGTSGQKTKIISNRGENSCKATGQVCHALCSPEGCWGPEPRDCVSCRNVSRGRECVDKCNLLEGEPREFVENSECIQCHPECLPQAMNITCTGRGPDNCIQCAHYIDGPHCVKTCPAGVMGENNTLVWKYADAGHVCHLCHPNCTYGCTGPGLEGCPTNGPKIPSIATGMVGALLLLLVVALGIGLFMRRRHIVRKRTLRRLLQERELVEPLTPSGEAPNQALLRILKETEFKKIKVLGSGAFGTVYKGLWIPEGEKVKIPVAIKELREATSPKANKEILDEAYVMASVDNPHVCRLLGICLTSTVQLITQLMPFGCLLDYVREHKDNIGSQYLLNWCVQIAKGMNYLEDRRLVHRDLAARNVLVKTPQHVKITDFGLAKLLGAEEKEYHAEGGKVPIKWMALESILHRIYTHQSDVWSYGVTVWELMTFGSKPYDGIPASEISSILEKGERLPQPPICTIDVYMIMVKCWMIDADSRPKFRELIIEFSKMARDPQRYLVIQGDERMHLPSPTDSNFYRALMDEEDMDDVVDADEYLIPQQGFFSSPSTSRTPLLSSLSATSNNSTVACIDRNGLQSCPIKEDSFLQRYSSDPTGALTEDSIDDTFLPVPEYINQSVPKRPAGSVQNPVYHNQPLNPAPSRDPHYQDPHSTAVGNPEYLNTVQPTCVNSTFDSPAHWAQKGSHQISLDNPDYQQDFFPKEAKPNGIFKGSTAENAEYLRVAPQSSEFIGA", "conditions": "at 10 µM"}, "[2]": {"molecular_target": "Tyrosine-protein kinase Lck (Homo sapiens, UniProt P06239)", "sequence (P06239 whole entry)": "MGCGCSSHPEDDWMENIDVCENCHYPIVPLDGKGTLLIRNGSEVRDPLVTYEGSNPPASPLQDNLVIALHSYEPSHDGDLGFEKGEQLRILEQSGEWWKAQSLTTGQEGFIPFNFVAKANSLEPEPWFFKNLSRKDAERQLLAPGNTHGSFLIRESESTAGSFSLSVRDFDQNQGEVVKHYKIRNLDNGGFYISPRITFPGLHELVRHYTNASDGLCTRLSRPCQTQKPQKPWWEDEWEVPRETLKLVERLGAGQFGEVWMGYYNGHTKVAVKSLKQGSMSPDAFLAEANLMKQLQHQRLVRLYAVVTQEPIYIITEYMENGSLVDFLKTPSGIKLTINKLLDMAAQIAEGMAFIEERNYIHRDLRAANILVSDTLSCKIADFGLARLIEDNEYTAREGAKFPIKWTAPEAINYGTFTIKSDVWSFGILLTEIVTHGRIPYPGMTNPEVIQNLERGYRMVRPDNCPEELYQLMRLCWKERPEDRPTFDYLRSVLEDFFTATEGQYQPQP"}, "[3]": {"molecular_target": "Mitogen-activated protein kinase 10 (Homo sapiens, UniProt P53779)", "sequence (P53779 whole entry)": "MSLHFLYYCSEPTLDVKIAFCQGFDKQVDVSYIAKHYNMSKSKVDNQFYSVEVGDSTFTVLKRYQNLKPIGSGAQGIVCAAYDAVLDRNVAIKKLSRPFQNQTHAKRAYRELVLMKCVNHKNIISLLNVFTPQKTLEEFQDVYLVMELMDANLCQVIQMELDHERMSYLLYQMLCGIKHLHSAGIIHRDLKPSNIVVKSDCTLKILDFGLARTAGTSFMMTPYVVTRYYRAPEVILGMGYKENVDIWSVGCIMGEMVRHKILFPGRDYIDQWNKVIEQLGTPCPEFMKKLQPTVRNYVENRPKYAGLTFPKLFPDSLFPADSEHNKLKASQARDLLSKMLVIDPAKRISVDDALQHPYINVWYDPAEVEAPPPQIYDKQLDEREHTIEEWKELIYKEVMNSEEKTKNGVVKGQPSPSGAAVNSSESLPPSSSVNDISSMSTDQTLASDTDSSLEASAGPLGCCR", "assay": "Selectivity interaction (KinomeScan (DiscoverX)) EUB0000695a MAPK10", "conditions": "at 100 nM"}, "[4]": {"molecular_target": "Calcium/calmodulin-dependent protein kinase type II subunit alpha (Homo sapiens, UniProt Q9UQM7)", "sequence (Q9UQM7 whole entry)": "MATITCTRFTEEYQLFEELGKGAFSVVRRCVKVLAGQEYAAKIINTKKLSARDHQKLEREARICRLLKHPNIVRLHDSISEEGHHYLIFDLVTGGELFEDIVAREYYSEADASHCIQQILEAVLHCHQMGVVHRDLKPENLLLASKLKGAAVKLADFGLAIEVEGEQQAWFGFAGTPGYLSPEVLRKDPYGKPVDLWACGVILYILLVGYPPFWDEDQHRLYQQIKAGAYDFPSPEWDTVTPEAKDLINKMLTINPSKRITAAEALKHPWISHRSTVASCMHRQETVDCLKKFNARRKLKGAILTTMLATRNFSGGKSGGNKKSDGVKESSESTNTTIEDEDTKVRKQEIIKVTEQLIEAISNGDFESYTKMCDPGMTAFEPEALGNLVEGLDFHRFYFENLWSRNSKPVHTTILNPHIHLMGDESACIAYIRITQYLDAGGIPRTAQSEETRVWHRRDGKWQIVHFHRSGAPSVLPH", "assay": "Selectivity interaction (KinomeScan (DiscoverX)) EUB0001079a CAMK2A", "conditions": "at 1 µM"}, "[5]": {"tested_on": "Receptor-type tyrosine-protein kinase FLT3 (Homo sapiens), P36888 [UNDEFINED MUTATION]", "assay": "(§1) Selectivity interaction (KinomeScan (DiscoverX)) EUB0000311b FLT3", "conditions": "at 1 µM"}, "[6]": {"molecular_target": "Receptor-type tyrosine-protein kinase FLT3 (Homo sapiens) (UniProt P36888)", "assay": "as §1", "conditions": "at 1 µM"}, "[7]": {"tested_on": "T1, Receptor-type tyrosine-protein kinase FLT3 (Homo sapiens), P36888 [D835Y]", "T1 sequence (whole entry)": "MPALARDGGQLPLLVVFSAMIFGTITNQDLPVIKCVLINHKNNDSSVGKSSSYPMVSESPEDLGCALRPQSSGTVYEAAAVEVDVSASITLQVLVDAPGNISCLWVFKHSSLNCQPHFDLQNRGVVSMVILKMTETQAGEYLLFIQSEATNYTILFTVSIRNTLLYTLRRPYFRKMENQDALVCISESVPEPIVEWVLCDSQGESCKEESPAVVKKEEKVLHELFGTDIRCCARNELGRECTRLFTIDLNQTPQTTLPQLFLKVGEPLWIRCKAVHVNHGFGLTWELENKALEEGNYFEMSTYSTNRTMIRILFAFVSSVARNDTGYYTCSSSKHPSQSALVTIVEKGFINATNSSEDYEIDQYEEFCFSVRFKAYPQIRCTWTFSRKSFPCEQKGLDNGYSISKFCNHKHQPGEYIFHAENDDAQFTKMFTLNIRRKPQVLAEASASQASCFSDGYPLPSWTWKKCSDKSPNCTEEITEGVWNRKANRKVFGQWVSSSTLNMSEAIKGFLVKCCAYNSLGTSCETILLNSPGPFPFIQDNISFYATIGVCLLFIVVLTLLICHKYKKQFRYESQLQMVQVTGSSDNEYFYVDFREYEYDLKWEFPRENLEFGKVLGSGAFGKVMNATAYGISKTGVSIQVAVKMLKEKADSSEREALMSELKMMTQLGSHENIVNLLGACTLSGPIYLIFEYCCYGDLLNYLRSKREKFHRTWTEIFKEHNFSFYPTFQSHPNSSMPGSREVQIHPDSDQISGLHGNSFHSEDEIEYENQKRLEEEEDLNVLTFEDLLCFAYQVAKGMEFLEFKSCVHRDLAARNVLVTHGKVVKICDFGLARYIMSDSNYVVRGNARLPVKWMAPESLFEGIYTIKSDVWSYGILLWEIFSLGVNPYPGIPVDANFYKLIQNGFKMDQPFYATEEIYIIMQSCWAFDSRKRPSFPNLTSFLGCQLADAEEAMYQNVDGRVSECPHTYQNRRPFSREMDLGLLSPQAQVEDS", "assay": "as §1", "conditions": "at 1 µM"}, "[8]": {"tested_on": "T2, Receptor-type tyrosine-protein kinase FLT3 (Homo sapiens), P36888 [N841I]", "T2 sequence (whole entry)": "T1 sequence (whole entry) with Y835D, N841I", "assay": "as §1", "conditions": "at 1 µM"}, "[9]": {"molecular_target": "T3, NUAK family SNF1-like kinase 2 (Homo sapiens) (UniProt Q9H093)", "T3 sequence (whole entry)": "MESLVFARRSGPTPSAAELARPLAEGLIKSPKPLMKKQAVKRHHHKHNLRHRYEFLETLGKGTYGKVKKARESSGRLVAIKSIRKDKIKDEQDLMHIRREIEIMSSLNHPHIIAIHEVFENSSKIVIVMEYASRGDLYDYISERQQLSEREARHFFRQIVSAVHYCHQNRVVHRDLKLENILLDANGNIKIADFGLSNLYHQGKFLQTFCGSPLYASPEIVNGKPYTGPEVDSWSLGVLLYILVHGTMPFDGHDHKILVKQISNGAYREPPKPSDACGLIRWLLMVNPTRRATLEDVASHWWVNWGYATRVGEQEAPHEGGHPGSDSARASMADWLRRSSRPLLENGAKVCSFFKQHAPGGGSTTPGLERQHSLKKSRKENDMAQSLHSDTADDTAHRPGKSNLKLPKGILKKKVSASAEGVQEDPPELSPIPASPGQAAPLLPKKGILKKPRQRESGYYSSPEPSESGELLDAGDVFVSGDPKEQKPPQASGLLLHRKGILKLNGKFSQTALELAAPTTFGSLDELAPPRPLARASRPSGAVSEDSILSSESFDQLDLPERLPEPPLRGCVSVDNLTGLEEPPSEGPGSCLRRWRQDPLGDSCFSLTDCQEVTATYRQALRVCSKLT", "assay": "Selectivity interaction (KinomeScan (DiscoverX)) EUB0000607a NUAK2", "conditions": "at 10 µM"}}, "note": "Changes are numbered by the printed parent chain.", "data": [{"smiles": "Cc1cc([C@@H](C)Nc2ccccc2C(=O)O)c2nc(N3CCOCC3)cc(=O)n2c1", "note": "[AZD-6482]", "values": [{"measurement": "% of control", "setting": "[1]", "result": 100, "unit": "%"}]}, {"smiles": "CCc1cccc(CC)c1NC(=O)c1nn(C)c2c1CCc1cnc(Nc3ccc(C(=O)NC4CCN(C)CC4)cc3OC(F)(F)F)nc1-2", "values": [{"measurement": "IC50", "setting": "[2]", "result": "> 10", "unit": "µM"}]}, {"smiles": "Cc1cc(F)c(C(=O)Nc2cccc(-c3nncn3C(C)C)n2)cc1-n1cnc(C2CC2)c1", "values": [{"measurement": "% of control", "setting": "[3]", "result": 71, "unit": "%"}]}, {"smiles": "Nc1cnc(N2CCc3cc(S(=O)(=O)Nc4c(F)cc(Cl)cc4F)cc(N4CCCC4=O)c32)nc1", "note": "[TP-020n]", "values": [{"measurement": "% of control", "setting": "[4]", "result": 92, "unit": "%"}]}, {"smiles": "CCc1ccccc1C(=O)Nc1n[nH]c2c(C)c(F)c(C3C(C#N)=C(C)N(C)C(C)=C3C#N)cc12", "note": "[BAY-3827]", "values": [{"measurement": "% of control", "setting": "[5]", "result": 11, "unit": "%"}, {"measurement": "% of control", "setting": "[6]", "result": 16, "unit": "%"}, {"measurement": "% of control", "setting": "[7]", "result": 2.5, "unit": "%"}, {"measurement": "% of control", "setting": "[8]", "result": 0, "unit": "%"}]}, {"smiles": "CNC(=O)Nc1ccc(-c2nc(N3CC4CCC(C3)O4)c3cnn(C4CCC5(CC4)OCCO5)c3n2)cc1", "values": [{"measurement": "% of control", "setting": "[9]", "result": 100, "unit": "%"}]}]}
